In paper PMC12845078 (Pharmaceuticals, 2025):
Marks after values point to notes of the source that are not given here.

Legend:
[1] = Pharmacokinetics of MT, 6-HMT and CBD in SD rats (i.v. and oral); details: rats
Description: The drugs were dissolved in the same manner as described previously, with an administration volume of 5 mL/kg for all groups. Blood samples were collected at the time points of pre-administration and 0.033 (only for the intravenous administration group), 0.083, 0.25, 0.5, 0.75, 1, 1.5, 2, 4, 6, 8, and 12 h post-administration.
(§1) The column temperature was set at 40 °C.

[2] = Pharmacokinetics of MT, 6-HMT and CBD in beagles after oral administration; details: beagles, p.o.
Description: Twelve male healthy adult beagles (weighing 10 ± 2 kg) were randomly divided into two groups. […] The drugs were dissolved in a physiological saline solution containing 5% castor oil, with an administration volume of 2 mL/kg. Blood samples were collected at the time points of pre-administration and 0.083, 0.25, 0.5, 0.75, 1, 1.5, 2, 4, 6, 8, and 12 h post-administration.
as §1

[3] = Pharmacokinetics of MT and CBD in rats after pre-administration of ABT; details: both groups after ABT co-administration, all sampling time points; below lower limit of quantification
Description: Twelve SD rats were randomly divided into two groups. Both groups were first given an intragastric administration of 1-aminobenzotriazole (ABT) at a dose of 200 mg/kg. […] The administration volume for all groups was 5 mL/kg. […] Approximately 50 μL of venous blood were collected into heparin sodium anticoagulant tubes and placed on ice. The sample processing and storage methods were the same as described previously.
Subsequently, the resultant mixture was vortexed for 1 minute and centrifuged at 4 °C for 10 min at 18,800× g. […] The lowest limit of quantification (LLOQ) was established at 2 ng/mL.
Kromasil 100-5-C8 (2.1 × 50 mm) was selected for the separation of samples. The mobile phase consisted of solvent A (water with 0.1% formic acid and 5 mM ammonium acetate) and solvent B (methanol with 0.1% formic acid). […] The column temperature was set at 40 °C. The two eluents were 0.1% formic acid and 5 mM ammonium acetate in water (A) and 0.1% formic acid in methanol (B). […] The main mass spectrometry detection parameters were: dry gas 10 L/min, heated gas 10 L/min, collision gas 270 kPa, ion source temperature 300 °C, desolvation temperature 250 °C, and heating module temperature 400 °C.
Pharmacokinetic parameters: GraphPad Prism 10.1 software was utilized to draw the curves. Noncompartmental analysis was selected to calculate the major PK parameters, including clearance (CL), volume (V), half-life (t1/2), peak concentration (Cmax), and area under the curve (AUC), using WinNonlin 8.1.

Compound: COc1cc2c(CCNC(C)=O)c[nH]c2cc1O [6-HMT, 6-Hydroxymelatonin]
- AUC(0–t) ([1]; i.v., MT + CBD (1 + 1) mg/kg): 33.63 (5.10) h × ng/mL
- MRT(0–t) ([1]; i.v., MT + CBD (1 + 1) mg/kg): 0.38 (0.06) h
- t1/2 ([1]; i.v., MT + CBD (1 + 1) mg/kg): 0.28 (0.04) h
- AUC(0–1h) ([1]; p.o., MT + CBD (5 + 5) mg/kg): 77.02 (26.81) h × ng/mL
- AUC(0–t) ([1]; p.o., MT + CBD (5 + 5) mg/kg): 110.2 (39.21) h × ng/mL
- Cmax ([1]; p.o., MT + CBD (5 + 5) mg/kg): 125.1 (33.41) ng/mL
- MRT(0–t) ([1]; p.o., MT + CBD (5 + 5) mg/kg): 0.88 (0.11) h
- Tmax ([1]; p.o., MT + CBD (5 + 5) mg/kg): 0.33 (0.13) h
- t1/2 ([1]; p.o., MT + CBD (5 + 5) mg/kg): 1.72 (1.48) h
- AUC(0–1h) ([1]; p.o., MT + CBD (5 + 20) mg/kg): 48.98 (8.27) ** h × ng/mL
- AUC(0–t) ([1]; p.o., MT + CBD (5 + 20) mg/kg): 123.2 (15.77) h × ng/mL
- Cmax ([1]; p.o., MT + CBD (5 + 20) mg/kg): 64.17 (10.40) ** ng/mL
- MRT(0–t) ([1]; p.o., MT + CBD (5 + 20) mg/kg): 2.37 (0.38) ** h
- Tmax ([1]; p.o., MT + CBD (5 + 20) mg/kg): 0.33 (0.20) h
- t1/2 ([1]; p.o., MT + CBD (5 + 20) mg/kg): 3.41 (1.90) h
- AUC(0–1h) ([1]; p.o., MT + Vehicle 5 mg/kg): 90.04 (26.46) h × ng/mL
- AUC(0–t) ([1]; p.o., MT + Vehicle 5 mg/kg): 125.2 (21.64) h × ng/mL
- Cmax ([1]; p.o., MT + Vehicle 5 mg/kg): 145.6 (40.82) ng/mL
- MRT(0–t) ([1]; p.o., MT + Vehicle 5 mg/kg): 1.41 (0.59) h
- Tmax ([1]; p.o., MT + Vehicle 5 mg/kg): 0.25 (0) h
- t1/2 ([1]; p.o., MT + Vehicle 5 mg/kg): 1.56 (0.90) h
- AUC(0–t) ([2]; MT + CBD (3 + 3) mg/kg): 192.4 (72.83) h × ng/mL
- AUC(0–∞) ([2]; MT + CBD (3 + 3) mg/kg): 245.7 (69.0) h × ng/mL
- Cmax ([2]; MT + CBD (3 + 3) mg/kg): 62.9 (18.18) ng/mL
- MRT(0–t) ([2]; MT + CBD (3 + 3) mg/kg): 2.94 (0.83) h
- Tmax ([2]; MT + CBD (3 + 3) mg/kg): 0.58 (0.20) h
- t1/2 ([2]; MT + CBD (3 + 3) mg/kg): 4.11 (1.69) h
- ratio of AUC(0–t),6-HMT to AUC(0–t),MT with CBD, as percent of MT alone ([2]; MT + CBD (3 + 3) mg/kg vs MT 3 mg/kg): 26%
- AUC(0–t) ([2]; MT + Vehicle 3 mg/kg): 179.7 (36.31) h × ng/mL
- AUC(0–∞) ([2]; MT + Vehicle 3 mg/kg): 202.1 (46.02) h × ng/mL
- Cmax ([2]; MT + Vehicle 3 mg/kg): 74.80 (10.94) ng/mL
- MRT(0–t) ([2]; MT + Vehicle 3 mg/kg): 3.60 (0.81) h
- Tmax ([2]; MT + Vehicle 3 mg/kg): 0.29 (0.10) h
- t1/2 ([2]; MT + Vehicle 3 mg/kg): 3.33 (1.11) h
- plasma concentration [3]: < 2 ng/mL
